From patent US6544727B1, “Methods and devices for the removal of psoralens from blood products” (Cerus Corporation, priority 1995, dated 2003)
Like-named read-outs stand apart in the source and are kept apart here.

Key:
R17 bacteriophage = R17 bacteriophage inactivation at constant concentration, varying doses of UV light; assay type: cell-based; conditions: 1.0-3.0 J/cm^2, FIGS. 11-17
Description: Compounds of the present invention were also tested at a constant concentration for varying doses of UV light. Three sets of 1.5 mL tubes were prepared containing 0.6mL aliquots of R17 in DMEM (prepared as described above). The compound tested was added at the desired concentration and the samples were vortexed. The samples were then irradiated at intervals of 1.0 J/cm^2, until 3.0 J/cm^2 was reached. Between each 1.0 J/cm^2 interval, 100 μL was removed from each sample and placed in the first corresponding dilution tube, then five sequential dilutions were performed for each compound tested, at all 3 irradiation doses, as described above in this example.
Then 50 μL of Hfr 3000 bacteria was added to each tube, 3 mL of top agar was added and the tube contents were vortexed The contents of each tube was poured into its own LB plate and the plates were incubated overnight at 37° C. Plaques were counted by visual inspection the following morning.

[1] = system: Salmonella tester strain TA100
How it was run: (§1)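 Pre-incubation Ames method: overnight culture plus 10% Aroclor 1254-induced rat liver S-9 mix or 0.2M phosphate buffer pH 7.4, with test solutions of 0–500 μg/mL, shaken 20 min at 37° C. Plated in histidine/biotin top agar on minimal glucose agar, revertant colonies counted after 44 h at 37° C against spontaneous-revertant background.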

platelets [2] = assay: Platelet aggregation (ADP and collagen), aggregometer; assay type: cell-based, human; conditions: 100 μM compound, 5 Joules/cm^2, 5 days storage; FIG. 21B
Description: To measure the effects of the present compounds and methods of decontamination on platelet function using these four indicators, four samples were prepared for each compound tested, two control samples and two containing compound. Three units of human platelets were obtained from the Sacramento Blood Center, Sacramento, Calif. These were each transferred under sterile conditions to 50 ml centrifuge tubes, then aliquots of each unit were transferred into a second set of 50 ml sterile centrifuge tubes. To each centrifuge tube containing platelet concentrate (PC), an aliquot of compound stock was added to reach a final concentration of 100 μM of compound. […] The samples were pipetted gently up and down to mix. Then aliquots (either 3 ml or 8 ml) of each sample was transferred to two sterile Teflon™ Medi-bags™ (American Fluoroseal Co., Silver Springs, Md.) (presently owned by The West Company, Lionville, Pa.). Samples were treated in one of two different sized bags, having either 3 ml or 8 ml capacity. […] For each compound tested, two control samples without compound were prepared by again removing aliquots of platelet concentrate (17 ml if using an 8 ml bag, 4 ml if using a 3 ml bag) from the same one of the first set of 50 ml centrifuge tubes from which the compound sample was drawn, and dividing into Medibags, as before. […]

platelets [3] = assay: Partitioning of S-59 in platelet concentrate before and after UVA illumination; assay type: in vitro ADME; conditions: % of the original S-59, after UVA
Description: During the UVA illumination process, S-59 undergoes a photochemical reaction to form several low molecular weight photoproducts in addition to associating with macromolecules in both the platelet and the plasma fractions. […] This fraction of low molecular weight photoproducts is removed during the scrub process, and their removal can be monitored both by HPLC and by radioactivity measurement using ^3H-labeled S-59.
The S-59 which is not amenable to removal by the scrub/capture process can also be monitored using ^3H-labeled S-59.

[4] = Residual S-59 and photoproducts D and E in fresh frozen plasma after batch RD (Tables R, T); assay type: physicochemical, human
Description: Samples taken from each bag after a 1-hour incubation were analyzed for S-59 and photoproduct removal. The results (n=7) for residual S-59 and photoproducts D and E (two of primary photoproducts formed during illumination, as described above) are presented in Table R (ND=not detectable; 1 hour incubation).
The experiments were performed in the manner described above.

[5] = system: Salmonella tester strain TA97a
How it was run: as §1

SMILES: Cc1oc2c(C)c3oc(=O)cc(C)c3cc2c1CNCCCCN [Compound 6, 4′-(6-amino-2-aza)hexyl-4,5′,8-trimethylpsoralen]
- R17 inactivation efficiency compared with AMT (in words) (R17 bacteriophage): more efficient at inactivating R17 than was AMT

SMILES: Cc1oc2c(C)c3oc(=O)cc(C)c3cc2c1COCCN [Compound 2, 4′-(4-amino-2-oxa)butyl-4,5′,8-trimethylpsoralen]
- revertant colonies per plate ([1]; TA100 + S9, 5 μg/plate): −18
- revertant colonies per plate ([1]; TA100 + S9, 10 μg/plate): 1
- revertant colonies per plate ([1]; TA100 + S9, 50 μg/plate): 115
- revertant colonies per plate ([1]; TA100 + S9, 100 μg/plate): 96
- revertant colonies per plate ([1]; TA100 − S9, 5 μg/plate): 103
- revertant colonies per plate ([1]; TA100 − S9, 10 μg/plate): 46
- revertant colonies per plate ([1]; TA100 − S9, 50 μg/plate): 182
- revertant colonies per plate ([1]; TA100 − S9, 100 μg/plate): 121
- reduction in platelet aggregation from the day 1 control (platelets [2]): approximately 8%
- photo-reaction products of S-59 (platelets [3]): 40-50%
- residual S-59 in fresh frozen plasma ([4]; RD with […] g Dowex XUS 43493, approximately one hour incubation): ≤ 0.75 µM
- Concentration in plasma, Pre-Removal ([4]; Table R, 150 μM S-59 in plasma after 3 J/cm^2 UVA, before RD): 83.30 µM
- Concentration in plasma, Pre-removal (±SD) ([4]; Table T, 150 μM S-59 in plasma after 3 J/cm^2 UVA, before RD): 88.7 ± 4.1 µM

SMILES: Cc1oc2c(C)c3oc(=O)cc(C)c3cc2c1CN [AMT, 4′-Aminomethyl-4,5′,8-trimethylpsoralen, reference compound]
- revertant colonies per plate ([5]; TA97a + S9, 0.1 μg/plate): −23
- revertant colonies per plate ([5]; TA97a + S9, 0.5 μg/plate): 32
- revertant colonies per plate ([5]; TA97a + S9, 1 μg/plate): 32
- revertant colonies per plate ([5]; TA97a + S9, 5 μg/plate): 149
- revertant colonies per plate ([5]; TA97a − S9, 0.1 μg/plate): 14
- revertant colonies per plate ([5]; TA97a − S9, 0.5 μg/plate): 9
- revertant colonies per plate ([5]; TA97a − S9, 1 μg/plate): 54
- revertant colonies per plate ([5]; TA97a − S9, 5 μg/plate): 73
